According to patent publication US8048925B2, “Bis(thio-hydrazide amide) salts for treatment of cancers” (Synta Pharmaceuticals Corp., priority 2004, dated 2011):
Like-named read-outs stand apart in the source and are kept apart here.

Assays:
[1] = Solubility in water, saturated suspension filtered and measured by HPLC; type: physicochemical; details: for solubility: thermodynamic from solid; for water solubility compared with the corresponding neutral or monosalt compounds: result in words
Experimental: A compound was weighed and water was added to the compound such that the resulting concentration of the compound was about 100 mg/mL. The mixture was then shaken well and sonicated (about 5-10 min at about 50° C.). If the added amounts of the compound were totally solubilized, more amounts of the compound were added to the solution and the mixture was shaken well and sonicated until a suspension was achieved. The suspension was then filtered through a 0.2 μm filter. The filtered solution was diluted with DMSO. Then the mixture was analyzed by HPLC to determine the concentration of the compound.
The HPLC system consisted of the HP 1100 Model (Agilent, Wilmington, Del.) equipped with a model 1100 quaternary pump, a model 1100 autosampler, a model 1100 Diode-Array Detector for UV detection at 280 nm. HPLC analysis was performed using a gradient mobile phase consisting of acetonitrile-water containing 0.1% formic acid. Mobile phases were degassed and filtered through a solvent filtration apparatus and pumped at a constant rate of 1.0 mL/min. Separation was made on an XTerra MS C18 analytical column, 4.6 mm i.d.×150 mm, (Waters Corp., Milford, Mass., USA) fitted with a pre-column filter (XTerra MS C18, 3.9 mm×20 mm). The column was maintained at 40° C.

[2] = Pharmacokinetics study in dog, bioavailability AUCpo/AUCiv; type: in vivo
Experimental: Male beagle dogs were acclimated for at least one week prior to use, were fed laboratory chow and water ad libitum, and were housed in temperature and humidity controlled rooms. Compounds were prepared as a solution for intravenous injection or a capsule for oral administration. Three dogs were used for the study. Compounds were injected intravenously via cephalic vein or by oral gavage. The dose was adjusted based on the animal's body weight. Blood samples were collected at intervals of 5, 10 and 30 min and 1, 2, 4, 6, 8 and 24 hr (example) after administration of the compound and plasma samples were prepared after centrifugation (5000 rpm, 8 min) of whole blood samples. Compound in plasma was measured by a liquid chromatography with tandem mass spectrophotometer (LC/MS/MS) after 50 μl of these samples were extracted by protein precipitation with acetonitrile. The compound concentration was determined by the standard curve (concentration vs. peak area) made with the same extraction procedure of controlled plasma. The area under curve (AUC) was calculated using the modified trapezoidal method. The portion of AUC from the last measurable plasma concentration to infinity was estimated by C/k, where k was expressed by the least square regression of the log-linear concentration time points and C represents the last measurable plasma concentration. Bioavailability was calculated by AUCpo/AUCiv.
Compounds (1) and (3) and its internal standard were extracted from heparinized plasma by protein precipitation with acetonitrile. Chromatography was achieved on an XTerra column (Waters, particle size: 5 μm; 100 mm×3.0 mm i.d.) using a mixture of acetonitrile, water and formic acid. Analysis was performed on a Sciex API 365 tandem mass spectrometer with turbo ion spray interface. Negative ions were measured using the multiple-reaction-monitoring (MRM) mode with m/z 399.0→165.1. The run time was 9 min per sample, and Compounds (1) and (3) were quantitated by a peak area ratio using 1/×^2-weighted least-square linear regression plot.

[3] = water, shaken and sonicated about 5-10 min at about 50° C., filtered 0.2 μm, HPLC
[4] = water, shaken and sonicated about 5-10 min at about 50° C., filtered 0.2 μm, HPLC, read-out: Solubility in water

water solubility compared with the corresponding neutral or monosalt compounds [1]	Compound	solubility [1, 4]	also measured
	CN(/N=C(\[O-])CC(=O)NN(C)C(=S)c1ccccc1)C(=S)c1ccccc1.[Na+] [Compound 3, Sodium; 2-(N′-methyl-N′-thiobenzoyl-hydrazinocarbonyl)-1-(methyl-thiobenzoyl-hydrazono)-ethanolate]	52.8 mg/mL	bioavailability ([2]; dog, plasma, male beagle dogs, capsule oral vs intravenous solution, AUCpo/AUCiv, read-out: Bioavailability): 35%
	CN(/N=C(\[O-])CC(=O)NN(C)C(=S)c1ccccc1)C(=S)c1ccccc1.[Li+] [Compound 4, Lithium; 2-(N′-methyl-N′-thiobenzoyl-hydrazinocarbonyl)-1-(methyl-thiobenzoyl-hydrazono)-ethanolate]	53.5 mg/mL	
	CN(/N=C(\[O-])C/C([O-])=N/N(C)C(=S)c1ccccc1)C(=S)c1ccccc1.[Mg+2] [Compound 8, Magnesium; 2-(N′-methyl-N′-thiobenzoyl-hydrazinocarbonyl)-1-(methyl-thiobenzoyl-hydrazono)-ethanolate]	43.5 mg/mL	
	CN(/N=C(\[O-])CC(=O)NN(C)C(=S)c1ccccc1)C(=S)c1ccccc1.[K+] [Compound 10, Monopotassium; 2-(N′-methyl-N′-thiobenzoyl-hydrazinocarbonyl)-1-(methyl-thiobenzoyl-hydrazono)-ethanolate]	41.2 mg/mL	
significantly greater water solubility	CN(/N=C(\[O-])C/C([O-])=N/N(C)C(=S)C1(C)CC1)C(=S)C1(C)CC1.[Na+].[Na+] [Compound 12, Disodium; 2-(N′-methyl-N′-thio-1-methylcyclopropyl-hydrazinocarbonyl)-1-(methyl-thio-1-methylcyclopropyl-hydrazono)-ethanolate]	> 1000 mg/mL	
significantly greater water solubility	CN(/N=C(\[O-])C/C([O-])=N/N(C)C(=S)C1CC1)C(=S)C1CC1.[Na+].[Na+] [Compound 13, Disodium; 2-(N′-methyl-N′-thiocyclopropyl-hydrazinocarbonyl)-1-(methyl-thiocyclopropyl-hydrazono)-ethanolate]	> 1000 mg/mL	
significantly greater water solubility	CN(/N=C(\[O-])C/C([O-])=N/N(C)C(=S)C1(C)CC1)C(=S)C1(C)CC1.[K+].[K+] [Compound 14, Dipotassium; 2-(N′-methyl-N′-thio-1-methylcyclopropyl-hydrazinocarbonyl)-1-(methyl-thio-1-methylcyclopropyl-hydrazono)-ethano late]	> 1000 mg/mL	
	CN(NC(=O)CC(=O)NN(C)C(=S)c1ccccc1)C(=S)c1ccccc1 [Neutral Form of Compound 1, N-Malonyl-bis(N′-thiobenzoyl-N′-methyl hydrazide)]		water solubility ([1]; water, listed as neutral form of Compounds (1) and (2)): about 0.1 mg/ml; Solubility in water [1, 3]: <0.1 mg/mL; bioavailability ([2]; male beagle dogs, capsule oral vs intravenous solution, AUCpo/AUCiv): 4.8%; bioavailability ([2]; see Example 16 (dog)): 4.8%
	Cholin; 2-(N′-methyl-N′-thiobenzoyl-hydrazinocarbonyl)-1-(methyl-thiobenzoyl-hydrazono)-ethanolate [Compound 11]		Solubility in water [1, 3]: 264.0 (>200) mg/mL

Compound	water solubility compared with the corresponding neutral or monosalt compounds [1]	solubility [1, 4]	also measured
CN(NC(=O)CC(=O)NN(C)C(=S)c1ccccc1)C(=S)c1ccccc1 [Compound 1, Disodium; 2-(N′-methyl-N′-thiobenzoyl-hydrazinocarbonyl)-1-(methyl-thiobenzoyl-hydrazono)-ethanolate]	significantly greater water solubility		solubility ([1]; 50 °C, water, read-out: water solubility): > 1000 mg/mL; Solubility in water [1, 3]: >1000 mg/mL; bioavailability ([2]; male, beagle, plasma, oral, see Example 16 (dog), read-out: bioavailability): 80%
CN(/N=C(\[O-])C/C([O-])=N/N(C)C(=S)c1ccccc1)C(=S)c1ccccc1.[Li+].[Li+] [Compound 5, Dilithium; 2-(N′-methyl-N′-thiobenzoyl-hydrazinocarbonyl)-1-(methyl-thiobenzoyl-hydrazono)-ethanolate]	significantly greater water solubility	626 mg/mL	
